Activity calls are given as the source filed them.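 How the source made its calls: active means growth-inhibition EC50 no more than tenfold above the top tested dose; inconclusive means flat fit between 30% and 70% inhibition, or unreliable fit; inactive means EC50 more than tenfold above the top tested dose.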
What follows are compounds tested on E. coli NEB5alpha growth, BacTiter-Glo luminescence, 4 h (assay: Escherichia coli growth inhibition, dose response, counter-screen for MEX-5/POS-1 RNA-binding inhibitor project, luminescence, NEB5alpha (AID 1959);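 further: pUC19-transformed ampicillin-resistant cells grown in LB with ampicillin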).

How did the EC50 turn out when Fc1ccc(-c2nc3c(Cl)cc(C(F)(F)F)cn3c2Cl)cc1 was run?
The EC50 was > 11 µM (inactive).

For CSCC(C)N1CCC(Oc2cccc(C(=O)NCc3ccccn3)c2)CC1 (configuration not stated), which EC50 is on record?
The EC50 was > 11 µM (inactive).

How did the EC50 turn out when Oc1ccc(-c2cn3ccccc3n2)cc1O was run?
Its EC50 is > 11 µM (inactive).

For COC/C=C/C1=CC2=CC(=O)C(C)(OC(=O)c3cccs3)C(=O)C2=CO1 (configuration not stated), which EC50 is on record?
Its EC50 is > 11 µM (inactive).

For COc1cc2ccccc2cc1C(=O)NC(=S)Nc1cc(C(=O)O)ccc1C, which EC50 is on record?
The EC50 was > 11 µM (inactive).

C/C(=N/N=C(\C)c1ccccc1O)c1ccccc1O was tested. Which EC50 did it give?
Its EC50 is > 11 µM (inactive).

For N#CC1=C(N)OC2=C(C(=O)CCC2)C1c1cc2c(cc1Cl)OCO2 (configuration not stated), which EC50 is on record?
The EC50 was > 11 µM (inactive).

How did the EC50 turn out when Cc1ccc(S(=O)(=O)N2CCOCC2)cc1NC(=O)CN(C)C1CCS(=O)(=O)C1 (configuration not stated) was run?
Its EC50 is > 11 µM (inactive).

Which EC50 does the source give for CCOC(=O)N1CCN(/C=C(\C#N)c2nc3ccccc3s2)CC1 here?
Its EC50 is > 11 µM (inactive).

For COc1ccc(C2=CC3=C(Br)C(=O)C(C)(OC(=O)c4ccco4)C(=O)C3=CO2)cc1 (configuration not stated), which EC50 is on record?
The EC50 was > 11 µM (inactive).

CCOc1cc(/C=C(\C#N)c2nc3ccccc3[nH]2)ccc1OC(C)C(=O)O (configuration not stated) was tested. Which EC50 did it give?
The EC50 was > 11 µM (inactive).

For COc1cc(C2C(C#N)=C(N)OC3=C2C(=O)CC(C)(C)C3)c([N+](=O)[O-])cc1OC (configuration not stated), which EC50 is on record?
Its EC50 is > 11 µM (inactive).

For O=C(O)c1ccccc1N(c1ccccc1)c1ccccc1, which EC50 is on record?
Its EC50 is > 11 µM (inactive).

How did the EC50 turn out when C=CCN1C=C2C(=O)C(C)(OC(=O)CCC(=O)OC)C(=O)C(Br)=C2C=C1c1ccc(OC)cc1 (configuration not stated) was run?
Its EC50 is > 11 µM (inactive).

With CNc1c(N)n(Cc2ccccc2)c(=O)[nH]c1=O as the compound, how does the EC50 read?
The EC50 was > 11 µM (inactive).

Which EC50 does the source give for C=CC1=C(C(=O)O)N2C(=O)[C@@H](NC(=O)/C(=N\O)c3csc(N)n3)[C@H]2SC1 (stereo in doubt) here?
The EC50 was 0.521 µM.

For O=C1CCC/C(=N/NC(=O)c2sc3ccccc3c2Cl)C1, which EC50 is on record?
Its EC50 is > 11 µM (inactive).

For c1ccc(C2=NNC(c3ccccn3)=NN2)nc1, which EC50 is on record?
Its EC50 is > 11 µM (inactive).

Which EC50 does the source give for CCOc1cccc(C2C(C(=O)c3ccc(C)o3)=C(O)C(=O)N2c2nccs2)c1 (configuration not stated) here?
The EC50 was > 11 µM (inactive).

For CC(C)OCC(O)CN1CCN(CCN2C(=O)c3cccc4cccc(c34)C2=O)CC1 (configuration not stated), which EC50 is on record?
Its EC50 is > 11 µM (inactive).

Which EC50 does the source give for O=c1cc(-c2ccccc2Cl)oc2c(NS(=O)(=O)c3cc(Cl)cc(Cl)c3O)ccc(O)c12 here?
The EC50 was > 11 µM (inactive).

N#CC(C(=O)NCc1ccccc1)c1nc2ccccc2nc1N1CCCC1 (configuration not stated) was tested. Which EC50 did it give?
The EC50 was > 11 µM (inactive).

CCc1c(C)nc(SCC(=O)NNC(=O)c2ccco2)[nH]c1=O was tested. Which EC50 did it give?
The EC50 was > 11 µM (inactive).

With COC(=O)c1cccc(-n2c(CCC(=O)O)ccc2-c2cccs2)c1 as the compound, how does the EC50 read?
Its EC50 is > 11 µM (inactive).

For Cc1ccc2sc(NNC(=O)c3cc(=O)c4ccccc4o3)nc2c1C, which EC50 is on record?
The EC50 was > 11 µM (inactive).

N#CC(C#N)=Cc1cccn1-c1ccc(C(=O)O)cc1 was tested. Which EC50 did it give?
Its EC50 is > 11 µM (inactive).

CCCCOc1cccc(C2C(C(=O)c3ccc(C)o3)=C(O)C(=O)N2c2nnc(C)s2)c1 (configuration not stated) was tested. Which EC50 did it give?
Its EC50 is > 11 µM (inactive).

Which EC50 does the source give for Cc1nc2ccc(N3CCN(C)CC3)cc2nc1C here?
The EC50 was > 11 µM (inactive).

For COc1cccc(/C=N/Nc2ncnc(N)c2[N+](=O)[O-])c1OC, which EC50 is on record?
Its EC50 is > 11 µM (inactive).

With O=c1[nH]n(-c2ncnc3c2cnn3-c2ccccc2)c(=O)c2ccccc12 as the compound, how does the EC50 read?
The EC50 was > 11 µM (inactive).

With Cc1cc(/C=C2\C(=O)NC(=O)N(c3ccc(F)cc3)C2=O)c(C)n1-c1ccc(C(=O)O)cc1 as the compound, how does the EC50 read?
Its EC50 is > 11 µM (inactive).

How did the EC50 turn out when N#CC1=C(N)OC2=C(C(=O)CCC2)C1c1ccccc1 (configuration not stated) was run?
The EC50 was > 11 µM (inactive).

For COc1cccc(N2C(=O)NC(=O)/C(=C/c3ccc([N+](=O)[O-])s3)C2=O)c1, which EC50 is on record?
Its EC50 is > 11 µM (inactive).

For CCn1cc(C(=O)NCc2ccccn2)c(=O)c2cc(S(=O)(=O)N3CCCCC3)ccc21, which EC50 is on record?
The EC50 was > 11 µM (inactive).

How did the EC50 turn out when COC(=O)CNC(=O)C1Nc2ccc(OC(F)(F)F)cc2C2C=CCC12 (configuration not stated) was run?
The EC50 was > 11 µM (inactive).

For Cc1nc(S/C(=C/c2ccc(-c3ccc(Cl)cc3)o2)C(=O)O)n[nH]1, which EC50 is on record?
Its EC50 is > 11 µM (inactive).

For COc1c(O)cccc1[C@H](O)C1CCN(CCc2ccc(F)cc2)CC1, which EC50 is on record?
Its EC50 is > 11 µM (inactive).

Which EC50 does the source give for CCOC(=O)N1CCN(C2=Nc3cccc4cccc2c34)CC1 here?
The EC50 was > 11 µM (inactive).

Which EC50 does the source give for COc1ccc(CNC(=O)c2cnc3cc(C)ccn3c2=O)cc1 here?
Its EC50 is > 11 µM (inactive).

Which EC50 does the source give for COc1cc2[nH]c(C(=O)NN)c(N)c2cc1OC here?
The EC50 was > 11 µM (inactive).

How did the EC50 turn out when CCC(=O)OC1(C)C(=O)C2=COC(c3ccc(OC)cc3)=CC2=C(Br)C1=O (configuration not stated) was run?
The EC50 was > 11 µM (inactive).

For CCOC(=O)c1cc(CC)sc1/N=C/c1c(O)[nH]c(=S)[nH]c1=O, which EC50 is on record?
Its EC50 is > 11 µM (inactive).

With O=C1c2ccccc2C(=O)N1CCCc1nc(-c2ccncc2)no1 as the compound, how does the EC50 read?
The EC50 was > 11 µM (inactive).

Which EC50 does the source give for COc1ccc(CCn2c(O)c(C=Nc3ccc(NC(C)=O)cc3)c(=O)[nH]c2=O)cc1OC here?
Its EC50 is > 11 µM (inactive).

With CC1(C)Cc2c(cnn2-c2cccc(F)c2)C(NC(=O)CSc2ccccn2)C1 (configuration not stated) as the compound, how does the EC50 read?
Its EC50 is > 11 µM (inactive).

For O=C(O)CC(C(=O)O)N1C(=O)/C(=C/C=C/c2ccco2)SC1=S (configuration not stated), which EC50 is on record?
The EC50 was > 11 µM (inactive).

For CN1CCc2cc3c(c4c2C1Cc1ccccc1-4)OCO3 (configuration not stated), which EC50 is on record?
The EC50 was > 11 µM (inactive).
